Measured values from the NIST ThermoML archive (doi:10.1016/j.jct.2007.11.002).
± gives the expanded uncertainty stated by the source.

Settings: 101.33 kPa, Liquid; for viscosity: Capillary tube (Ostwald / Ubbelohde) method; for mass density: Vibrating tube method

| SMILES | viscosity (298.15 K) [mPa·s] | mass density (298.15 K) [kg/m3] | viscosity (303.15 K) [mPa·s] | mass density (303.15 K) [kg/m3] | viscosity (313.15 K) [mPa·s] | mass density (313.15 K) [kg/m3] | viscosity (323.15 K) [mPa·s] | mass density (323.15 K) [kg/m3] |
| --- | --- | --- | --- | --- | --- | --- | --- | --- |
| CN1CCOCC1 [N-methylmorpholine] | 0.881 ± 0.012 | 914.06 ± 0.74 | 0.864 ± 0.012 | 909.44 ± 0.73 | 0.833 ± 0.011 | 899.76 ± 0.72 | 0.814 ± 0.011 | 890.85 ± 0.71 |
| c1ccccc1 [benzene] | 0.601 ± 0.007 | 873.58 ± 0.09 | 0.563 ± 0.007 | 868.23 ± 0.09 | 0.494 ± 0.007 | 857.38 ± 0.1 | 0.436 ± 0.007 | 846.62 ± 0.1 |
| C1CCCCC1 [cyclohexane] | 0.904 ± 0.009 | 773.25 ± 0.24 | 0.809 ± 0.009 | 769.18 ± 0.24 | 0.698 ± 0.008 | 759.58 ± 0.24 | 0.604 ± 0.008 | 750.03 ± 0.24 |
| Cc1ccccc1 [toluene] | 0.553 ± 0.007 | 862.11 ± 0.23 | 0.523 ± 0.007 | 857.62 ± 0.23 | 0.471 ± 0.007 | 847.87 ± 0.25 | 0.422 ± 0.007 | 838.42 ± 0.29 |
